Results published in the NIST ThermoML archive (doi:10.1016/j.jct.2006.01.015).
Numbers after ± are expanded uncertainties.

Assay: xn = mol fraction of the nth substance listed
Details: 101 kPa, Liquid

A mass density (293.15 K, x2 = 0) of 941 ± 0.9 kg/m3, a mass density (293.15 K, x2 = 0.0815) of 934.2 ± 0.9 kg/m3 and a mass density (293.15 K, x2 = 0.1674) of 926.3 ± 0.9 kg/m3 were found for `CC(=O)N(C)C` [N,N-dimethylethanamide] + CC#N in this work. It also gave a mass density (293.15 K, x2 = 0.2386) of 919.2 ± 0.9 kg/m3, a mass density (293.15 K, x2 = 0.3133) of 911.2 ± 0.8 kg/m3 and a mass density (293.15 K, x2 = 0.3689) of 904.8 ± 0.8 kg/m3. The mass density (293.15 K, x2 = 0.4223) was 898.3 ± 0.8 kg/m3, the mass density (293.15 K, x2 = 0.4722) was 891.8 ± 0.8 kg/m3 and the mass density (293.15 K, x2 = 0.5387) was 882.5 ± 0.8 kg/m3. The mass density (293.15 K, x2 = 0.581) was 876.1 ± 0.8 kg/m3, the mass density (293.15 K, x2 = 0.6379) was 866.9 ± 0.8 kg/m3 and the mass density (293.15 K, x2 = 0.6794) was 859.7 ± 0.8 kg/m3. For the same molecule, the mass density (293.15 K, x2 = 0.7236) was 851.5 ± 0.8 kg/m3, the mass density (293.15 K, x2 = 0.8071) was 833.9 ± 0.7 kg/m3 and the mass density (293.15 K, x2 = 0.8776) was 817 ± 0.7 kg/m3. For the same molecule, the mass density (293.15 K, x2 = 0.9424) was 799.4 ± 0.7 kg/m3, the mass density (298.15 K, x2 = 0) was 936.5 ± 0.9 kg/m3 and the mass density (298.15 K, x2 = 0.0815) was 929.7 ± 0.9 kg/m3. The mass density (298.15 K, x2 = 0.1674) was 921.8 ± 0.9 kg/m3, the mass density (298.15 K, x2 = 0.2386) was 914.7 ± 0.9 kg/m3 and the mass density (298.15 K, x2 = 0.3133) was 906.7 ± 0.9 kg/m3. The mass density (298.15 K, x2 = 0.3689) was 900.3 ± 0.9 kg/m3, the mass density (298.15 K, x2 = 0.4223) was 893.8 ± 0.9 kg/m3 and the mass density (298.15 K, x2 = 0.4722) was 887.3 ± 0.9 kg/m3. For the same molecule, the mass density (298.15 K, x2 = 0.5387) was 877.9 ± 0.8 kg/m3, the mass density (298.15 K, x2 = 0.581) was 871.5 ± 0.8 kg/m3 and the mass density (298.15 K, x2 = 0.6379) was 862.2 ± 0.8 kg/m3. It also gave a mass density (298.15 K, x2 = 0.6794) of 855 ± 0.8 kg/m3, a mass density (298.15 K, x2 = 0.7236) of 846.7 ± 0.8 kg/m3 and a mass density (298.15 K, x2 = 0.8071) of 829 ± 0.8 kg/m3. It also gave a mass density (298.15 K, x2 = 0.8776) of 812 ± 0.8 kg/m3, a mass density (298.15 K, x2 = 0.9424) of 794.3 ± 0.7 kg/m3 and a mass density (303.15 K, x2 = 0) of 932 ± 1 kg/m3. It also gave a mass density (303.15 K, x2 = 0.0815) of 925.2 ± 1 kg/m3, a mass density (303.15 K, x2 = 0.1674) of 917.3 ± 0.9 kg/m3 and a mass density (303.15 K, x2 = 0.2386) of 910.2 ± 0.9 kg/m3. The mass density (303.15 K, x2 = 0.3133) was 902.2 ± 0.9 kg/m3, the mass density (303.15 K, x2 = 0.3689) was 895.8 ± 0.9 kg/m3 and the mass density (303.15 K, x2 = 0.4223) was 889.3 ± 0.9 kg/m3. For the same molecule, the mass density (303.15 K, x2 = 0.4722) was 882.7 ± 0.9 kg/m3, the mass density (303.15 K, x2 = 0.5387) was 873.3 ± 0.9 kg/m3 and the mass density (303.15 K, x2 = 0.581) was 866.9 ± 0.9 kg/m3. The mass density (303.15 K, x2 = 0.6379) was 857.6 ± 0.9 kg/m3, the mass density (303.15 K, x2 = 0.6794) was 850.2 ± 0.9 kg/m3 and the mass density (303.15 K, x2 = 0.7236) was 841.9 ± 0.9 kg/m3. The mass density (303.15 K, x2 = 0.8071) was 824.1 ± 0.8 kg/m3, the mass density (303.15 K, x2 = 0.8776) was 807 ± 0.8 kg/m3 and the mass density (303.15 K, x2 = 0.9424) was 789.2 ± 0.8 kg/m3. For the same molecule, the mass density (308.15 K, x2 = 0) was 927.6 ± 1 kg/m3, the mass density (308.15 K, x2 = 0.0815) was 920.7 ± 1 kg/m3 and the mass density (308.15 K, x2 = 0.1674) was 912.8 ± 1 kg/m3. For the same molecule, the mass density (308.15 K, x2 = 0.2386) was 905.7 ± 1 kg/m3, the mass density (308.15 K, x2 = 0.3133) was 897.7 ± 1 kg/m3 and the mass density (308.15 K, x2 = 0.3689) was 891.3 ± 1 kg/m3. The mass density (308.15 K, x2 = 0.4223) was 884.8 ± 0.9 kg/m3, the mass density (308.15 K, x2 = 0.4722) was 878.2 ± 0.9 kg/m3 and the mass density (308.15 K, x2 = 0.5387) was 868.8 ± 0.9 kg/m3. For the same molecule, the mass density (308.15 K, x2 = 0.581) was 862.3 ± 0.9 kg/m3, the mass density (308.15 K, x2 = 0.6379) was 852.9 ± 0.9 kg/m3 and the mass density (308.15 K, x2 = 0.6794) was 845.5 ± 0.9 kg/m3. It also gave a mass density (308.15 K, x2 = 0.7236) of 837.1 ± 0.9 kg/m3, a mass density (308.15 K, x2 = 0.8071) of 819.2 ± 0.9 kg/m3 and a mass density (308.15 K, x2 = 0.8776) of 802 ± 0.8 kg/m3. It also gave a mass density (308.15 K, x2 = 0.9424) of 784.1 ± 0.8 kg/m3, a mass density (313.15 K, x2 = 0) of 923.1 ± 1 kg/m3 and a mass density (313.15 K, x2 = 0.0815) of 916.2 ± 1 kg/m3. It also gave a mass density (313.15 K, x2 = 0.1674) of 908.3 ± 1 kg/m3, a mass density (313.15 K, x2 = 0.2386) of 901.2 ± 1 kg/m3 and a mass density (313.15 K, x2 = 0.3133) of 893.2 ± 1 kg/m3. The mass density (313.15 K, x2 = 0.3689) was 886.8 ± 1 kg/m3, the mass density (313.15 K, x2 = 0.4223) was 880.3 ± 1 kg/m3 and the mass density (313.15 K, x2 = 0.4722) was 873.7 ± 1 kg/m3. It also gave a mass density (313.15 K, x2 = 0.5387) of 864.2 ± 1 kg/m3, a mass density (313.15 K, x2 = 0.581) of 857.7 ± 1 kg/m3 and a mass density (313.15 K, x2 = 0.6379) of 848.3 ± 1 kg/m3. The mass density (313.15 K, x2 = 0.6794) was 840.8 ± 0.9 kg/m3, the mass density (313.15 K, x2 = 0.7236) was 832.3 ± 0.9 kg/m3 and the mass density (313.15 K, x2 = 0.8071) was 814.3 ± 0.9 kg/m3. For the same molecule, the mass density (313.15 K, x2 = 0.8776) was 797 ± 0.9 kg/m3, the mass density (313.15 K, x2 = 0.9424) was 779 ± 0.9 kg/m3 and the mass density (318.15 K, x2 = 0) was 918.6 ± 1.1 kg/m3. It also gave a mass density (318.15 K, x2 = 0.0815) of 911.7 ± 1.1 kg/m3, a mass density (318.15 K, x2 = 0.1674) of 903.9 ± 1.1 kg/m3 and a mass density (318.15 K, x2 = 0.2386) of 896.8 ± 1.1 kg/m3. It also gave a mass density (318.15 K, x2 = 0.3133) of 888.8 ± 1 kg/m3, a mass density (318.15 K, x2 = 0.3689) of 882.4 ± 1 kg/m3 and a mass density (318.15 K, x2 = 0.4223) of 875.8 ± 1 kg/m3. The mass density (318.15 K, x2 = 0.4722) was 869.2 ± 1 kg/m3, the mass density (318.15 K, x2 = 0.5387) was 859.7 ± 1 kg/m3 and the mass density (318.15 K, x2 = 0.581) was 853.1 ± 1 kg/m3. For the same molecule, the mass density (318.15 K, x2 = 0.6379) was 843.6 ± 1 kg/m3, the mass density (318.15 K, x2 = 0.6794) was 836.1 ± 1 kg/m3 and the mass density (318.15 K, x2 = 0.7236) was 827.5 ± 1 kg/m3. For the same molecule, the mass density (318.15 K, x2 = 0.8071) was 809.4 ± 1 kg/m3, the mass density (318.15 K, x2 = 0.8776) was 792 ± 0.9 kg/m3 and the mass density (318.15 K, x2 = 0.9424) was 773.9 ± 0.9 kg/m3.
